PubChem BioAssay (NCI)
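Dose response: 5 concentrations. Exposure: 48 h. Format: 96-well plates. Endpoint: linear interpolation; highest concentration if not reached. The concentration for full growth arrest is given as TGI.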

What was measured:
Assay in all cases: inhibition of tumour cell growth, NCI panel, 48 h
[1] = test system: MDA-N
[2] = test system: ACHN renal
[3] = test system: SNB-75 CNS
[4] = test system: UO-31 renal
[5] = test system: NCI-H522 lung
[6] = test system: SK-MEL-5 melanoma
[7] = test system: NCI/ADR-RES ovarian
[8] = test system: IGROV1 ovarian
[9] = test system: OVCAR-8 ovarian
[10] = test system: NCI-H460 lung
[11] = test system: HS 578T breast
[12] = test system: PC-3 prostate
[13] = test system: OVCAR-5 ovarian
[14] = test system: HL-60(TB) leukemia
[15] = test system: KM12 colon

Compound	TGI [1]	TGI [2]	TGI [3]	TGI [4]	TGI [5]	TGI [6]	TGI [7]	TGI [8]	TGI [9]	TGI [10]	TGI [11]	TGI [12]	TGI [13]	TGI [14]	TGI [15]
COC(=O)c1ccccc1/C=C1/Cc2cccc(C)c2C1=O	> 100 µM	> 100 µM	> 100 µM	> 100 µM	> 100 µM	> 100 µM	> 100 µM	> 100 µM	> 100 µM	> 100 µM	> 100 µM	> 100 µM	> 100 µM	> 100 µM	> 100 µM
CC(C)(C)OC(=O)NC1CC=CCC1NC(=O)OC(C)(C)C (stereo not given)	> 100 µM	> 100 µM	> 100 µM	> 100 µM	> 100 µM	> 100 µM	> 100 µM	> 100 µM	> 100 µM	> 100 µM	> 100 µM	> 100 µM	> 100 µM	> 100 µM	> 100 µM
CCSc1c(C)c2c(n(Cc3ccc(OC)cc3)c1=O)Cc1ccccc1C2	> 100 µM	84.2 µM	> 100 µM	> 100 µM	40.1 µM	77.4 µM	74.5 µM	54.2 µM	> 100 µM	27.7 µM	> 100 µM	84.3 µM	> 100 µM	31.6 µM	> 100 µM
Cc1cccc(-n2c(C)nc3ccc(NC4OC(CO)C(O)C(O)C4O)cc3c2=O)c1 (stereo not given)	> 100 µM	> 100 µM	> 100 µM	> 100 µM	> 100 µM	> 100 µM	> 100 µM	> 100 µM	> 100 µM	> 100 µM	> 100 µM	> 100 µM	> 100 µM	> 100 µM	> 100 µM
CCC(C)C(C(=O)N/N=C1/SCC(=O)N1C)C(=O)N/N=C1/SCC(=O)N1C (stereo not given)	> 100 µM	> 100 µM	> 100 µM	> 100 µM	> 100 µM	> 100 µM	> 100 µM	> 100 µM	> 100 µM	> 100 µM	> 100 µM	> 100 µM	> 100 µM	7.65 µM	> 100 µM
Nc1nc(N)c(C2=CCN(Cc3ccccc3)CC2)c(=O)[nH]1	> 100 µM	> 100 µM	> 100 µM	> 100 µM	> 100 µM	> 100 µM	> 100 µM	> 100 µM	> 100 µM	> 100 µM	> 100 µM	> 100 µM	> 100 µM	> 100 µM	> 100 µM
Cn1c(NN)nc(-c2ccc([N+](=O)[O-])cc2)c(C#N)c1=O	24.9 µM	24.7 µM	34.7 µM	33.8 µM	29.9 µM	17.3 µM	> 100 µM	39.9 µM	42.3 µM	36.4 µM	32.9 µM	43.5 µM	42.9 µM	> 100 µM	30.1 µM
